A short description of series [1]: Cytotoxicity against human renal cancer cells assessed as cellular growth at 10 uM after 48 hrs by SRB assay relative to control. In kind it is functional, Cancer cell lines. Background: In SRB staining, fixed cells bind dye roughly in proportion to their protein.
The nature of series [2]: Cytotoxicity against human prostate cancer cells assessed as cellular growth at 10 uM after 48 hrs by SRB assay relative to control. In kind it is functional, Cancer cell lines.
A short description of series [3]: Cytotoxicity against human non-small cell lung cancer cells assessed as cellular growth at 10 uM after 48 hrs by SRB assay relative to control. In kind it is functional, Cancer cell lines.
A short description of series [4]: Cytotoxicity against human melanoma cells assessed as cellular growth at 10 uM after 48 hrs by SRB assay relative to control. In kind it is functional, Melanoma cell.
Series [5] in a line: Cytotoxicity against human leukemia cells assessed as cellular growth at 10 uM after 48 hrs by SRB assay relative to control. In kind it is functional, Leukemia cell.
The nature of series [6]: Cytotoxicity against human breast cancer cells assessed as cellular growth at 10 uM after 48 hrs by SRB assay relative to control. The format is functional, Cancer cell lines.
For series [7], the system named is HT-29. Put plainly: Cytotoxicity against human HT-29 cells assessed as cellular growth at 0.01 uM after 48 hrs by SRB assay relative to control. The format is functional.
For series [8], the system named is PC-3. Put plainly: Cytotoxicity against human PC3 cells assessed as cellular growth at 100 uM after 48 hrs by SRB assay relative to control. The format is functional.
Series [9] has as its system HT-29. Nature of the series: Cytotoxicity against human HT-29 cells assessed as cellular growth at 100 uM after 48 hrs by SRB assay relative to control. In kind it is functional.
A further series has as its system Mus musculus. Nature of the series: Toxicity in mouse at 100 to 400 mg/kg measured for 2 weeks. The format is organism-based. Further details: dose 100-400 mg/kg. As to conditions: in vivo, 336 h.
Series [10] has as its system PC-3. Put plainly: Cytotoxicity against human PC3 cells assessed as cellular growth at 1 uM after 48 hrs by SRB assay relative to control. The format is functional.
The test system of series [11] is HT-29. Nature of the series: Cytotoxicity against human HT-29 cells assessed as cellular growth at 1 uM after 48 hrs by SRB assay relative to control. The format is functional.
Series [12] concerns PC-3. Nature of the series: Cytotoxicity against human PC3 cells after 48 hrs by SRB assay. In kind it is functional. Particulars: PC-3, 48 h.
The subject of series [13] is HT-29. Put plainly: Cytotoxicity against human HT-29 cells after 48 hrs by SRB assay. The format is functional. As to conditions: HT-29, 48 h.
Series [14] has as its system PC-3. Put plainly: Cytotoxicity against human PC3 cells assessed as cellular growth at 0.1 uM after 48 hrs by SRB assay relative to control. The format is functional.
For series [15], the system named is PC-3. Put plainly: Cytotoxicity against human PC3 cells assessed as cellular growth at 0.01 uM after 48 hrs by SRB assay relative to control. The format is functional.
The subject of series [16] is HCC 2998. Nature of the series: Cytotoxicity against human HCC2998 cells assessed as cellular growth at 0.01 uM after 48 hrs by SRB assay relative to control. The format is functional.
Series [17] has as its system RPMI-8226. Put plainly: Cytotoxicity against human RPMI8226 cells assessed as cellular growth at 0.01 uM after 48 hrs by SRB assay relative to control. The format is functional.
Series [18] concerns CAKI-1. Nature of the series: Cytotoxicity against human Caki1 cells assessed as cellular growth at 100 uM after 48 hrs by SRB assay relative to control. The format is functional.
Series [19] concerns MOLT-4. Put plainly: Cytotoxicity against human MOLT4 cells assessed as cellular growth at 100 uM after 48 hrs by SRB assay relative to control. The format is functional.
In series [20] the test system is RPMI-8226. Nature of the series: Cytotoxicity against human RPMI8226 cells assessed as cellular growth at 100 uM after 48 hrs by SRB assay relative to control. In kind it is functional.
Series [21] deals with CAKI-1. Nature of the series: Cytotoxicity against human Caki1 cells assessed as cellular growth at 1 uM after 48 hrs by SRB assay relative to control. The format is functional.
Another series concerns SW-620. Put plainly: Cytotoxicity against human SW620 cells assessed as cellular growth at 1 uM after 48 hrs by SRB assay relative to control. In kind it is functional.
For series [22], the system named is HCC 2998. Put plainly: Cytotoxicity against human HCC2998 cells assessed as cellular growth at 1 uM after 48 hrs by SRB assay relative to control. The format is functional.
Series [23] concerns MOLT-4. Nature of the series: Cytotoxicity against human MOLT4 cells assessed as cellular growth at 1 uM after 48 hrs by SRB assay relative to control. The format is functional.
Series [24] deals with CAKI-1. Nature of the series: Cytotoxicity against human Caki1 cells after 48 hrs by SRB assay. In kind it is functional. As to conditions: CAKI-1, 48 h.
In series [25] the test system is RPMI-8226. Nature of the series: Cytotoxicity against human RPMI8226 cells after 48 hrs by SRB assay. In kind it is functional. Particulars: RPMI-8226, 48 h.
Series [26] concerns RPMI-8226. Put plainly: Cytotoxicity against human RPMI8226 cells assessed as cellular growth at 0.1 uM after 48 hrs by SRB assay relative to control. The format is functional.
The test system of series [27] is MOLT-4. Nature of the series: Cytotoxicity against human MOLT4 cells assessed as cellular growth at 0.1 uM after 48 hrs by SRB assay relative to control. The format is functional.
[28] abbreviates: read-out: LC50 (the source's name).
[29] abbreviates: read-out: pLC50 (the source's name) (converted).

Data on three molecules can be found in ChEMBL document CHEMBL2401728, “An unexpected Dimroth rearrangement leading to annelated thieno[3,2-d][1,2,3]triazolo[1,5-a]pyrimidines with potent antitumor activity” (Eur J Med Chem, 2013).

For the molecule `O=C(O)CCCn1c2c(sc3ccccc32)c(=O)n2nnc(-c3ccccc3)c12`, the Activity in [1] is 75%; in series [2] it was 92%; in series [3], 85%; in [4] it was 95%; in series [5], 102%; in [6], 79%.

As for `O=C(CCCn1c2c(sc3ccccc32)c(=O)n2nnc(-c3ccccc3)c12)NCCc1c[nH]cn1`, the Activity is reported as 113% with HT-29 [7]; -51% in the series with PC-3 [8]; -100% in the series with HT-29 [9]; “Non-toxic” in the series with Mus musculus; 33% in the series on PC-3 [10]; 43% in the series on HT-29 [11]. In addition, the Activity in the series on PC-3 [14] is recorded as 40%; with PC-3 [15] it was 86%. The GI50 in the series with PC-3 [12] (read-out: GI50) is 60.3 nM; in the series on PC-3 [12] (read-out: pGI50 (converted)), 60.3 nM; in the series with HT-29 [13] (read-out: GI50), 674 nM; in the series on HT-29 [13] (read-out: pGI50 (converted)), 676 nM. Besides, the values for the LC50 with PC-3 [12] (read-out: LC50) and with PC-3 [12] (read-out: pLC50 (converted)) were 7320 nM and 7240 nM, respectively. Moreover, the TGI with PC-3 [12] (read-out: TGI) is 2210 nM; in the series on PC-3 [12] (read-out: pTGI (converted)) it was 2190 nM; in the series with HT-29 [13] (read-out: TGI), 2010 nM; in the series on HT-29 [13] (read-out: pTGI (converted)), 2000 nM. Moreover, the CC50 in the series with HT-29 [13] (setting [28]) is 4550 nM; in the series on HT-29 [13] (setting [29]) it was 4570 nM.

Consider `CN1CCN(CCCn2c3c(sc4ncccc43)c(=O)n3nnc(-c4ccccc4)c23)CC1`, for which the Activity in the series on HCC 2998 [16] is 104%; in the series on RPMI-8226 [17], 110%; in the series on CAKI-1 [18], -90%; in the series on MOLT-4 [19], -56%; with RPMI-8226 [20], -46%; with CAKI-1 [21] it was 85%. Further, the Activity turned out to be 83% in the series with SW-620; 102% in the series on HCC 2998 [22]; 92% in the series on MOLT-4 [23]; 100% in the series with RPMI-8226 [26]; 102% in the series on MOLT-4 [27]. Besides, the GI50 in the series on CAKI-1 [24] (read-out: GI50) was 1630 nM; with CAKI-1 [24] (read-out: pGI50 (converted)), 1620 nM; in the series on RPMI-8226 [25] (read-out: GI50), 1810 nM; in the series with RPMI-8226 [25] (read-out: pGI50 (converted)) it was 1820 nM. For the same molecule, the CC50 in the series with CAKI-1 [24] (setting [28]) is 6650 nM; with CAKI-1 [24] (setting [29]), 6610 nM; with RPMI-8226 [25] (setting [28]), greater than 100000 nM; in the series on RPMI-8226 [25] (read-out: pLC50 (converted)), greater than 100000 nM. Besides, the TGI in the series with CAKI-1 [24] (read-out: TGI) was 3290 nM; with CAKI-1 [24] (read-out: pTGI (converted)), 3310 nM; in the series with RPMI-8226 [25] (read-out: TGI), 4330 nM; in the series on RPMI-8226 [25] (read-out: pTGI (converted)) it was 4370 nM.
